Source: ChEMBL document CHEMBL1127341, “Synthesis and biological evaluation of 5-[[3,5-bis(1,1-dimethylethyl)- 4-hydroxyphenyl]methylene]oxazoles, -thiazoles, and -imidazoles: novel dual 5-lipoxygenase and cyclooxygenase inhibitors with antiinflammatory activity” (J Med Chem, 1994)
Active and inactive are the calls of the source. The calls are words filed in the database; no cut-off is given here.

What was measured:
[1] = biological target: T1, Polyunsaturated fatty acid 5-lipoxygenase (Rattus norvegicus) (UniProt P12527); assay: Inhibitory activity at 10 uM against 5-lipoxygenase in intact rat basophilic leukemia cells stimulated with the calcium ionophore A-23187; type: cell-based; details: RBL-1
T1 sequence (whole entry): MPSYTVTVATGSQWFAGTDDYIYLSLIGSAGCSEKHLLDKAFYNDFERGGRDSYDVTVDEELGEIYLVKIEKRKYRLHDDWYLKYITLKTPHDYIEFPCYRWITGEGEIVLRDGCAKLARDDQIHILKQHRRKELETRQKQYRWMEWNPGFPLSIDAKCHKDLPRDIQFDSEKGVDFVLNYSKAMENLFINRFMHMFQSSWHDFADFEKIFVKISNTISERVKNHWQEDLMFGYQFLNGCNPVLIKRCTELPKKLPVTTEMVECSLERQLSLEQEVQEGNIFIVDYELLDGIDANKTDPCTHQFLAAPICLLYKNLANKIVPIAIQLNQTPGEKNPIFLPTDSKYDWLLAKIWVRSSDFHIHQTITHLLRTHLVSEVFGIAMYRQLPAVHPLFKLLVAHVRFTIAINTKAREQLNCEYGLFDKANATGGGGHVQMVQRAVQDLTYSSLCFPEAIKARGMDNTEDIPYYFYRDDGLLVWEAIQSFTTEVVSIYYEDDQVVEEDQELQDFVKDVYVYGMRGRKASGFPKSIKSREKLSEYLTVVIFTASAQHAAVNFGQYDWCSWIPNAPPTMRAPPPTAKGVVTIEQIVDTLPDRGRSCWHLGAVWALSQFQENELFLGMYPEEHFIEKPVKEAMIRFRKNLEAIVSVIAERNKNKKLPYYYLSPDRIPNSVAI

[2] = biological target: T1, Polyunsaturated fatty acid 5-lipoxygenase (Rattus norvegicus); assay: Inhibitory activity against 5-lipoxygenase in intact rat basophilic leukemia cells stimulated with the calcium ionophore A-23187; type: cell-based; details: RBL-1; concentration not given here
[3] = system: Rattus norvegicus; assay: Inhibition of rat carrageenan induced foot-pad edema at a dose of 30 mg/kg on peroral administration; Inactive(N)= <25% inhibition at a dose of 30 mg/kg po; type: functional, organism-based
[4] = biological target: T2, Polyunsaturated fatty acid 5-lipoxygenase (Rattus norvegicus, UniProt P12527)
T2 sequence (P12527 whole entry): T1 sequence (whole entry)

[5] = biological target: T3, Cyclooxygenase (Rattus norvegicus, UniProt P35355+Q63921); details: rbl-1
T3 sequence (P35355 whole entry): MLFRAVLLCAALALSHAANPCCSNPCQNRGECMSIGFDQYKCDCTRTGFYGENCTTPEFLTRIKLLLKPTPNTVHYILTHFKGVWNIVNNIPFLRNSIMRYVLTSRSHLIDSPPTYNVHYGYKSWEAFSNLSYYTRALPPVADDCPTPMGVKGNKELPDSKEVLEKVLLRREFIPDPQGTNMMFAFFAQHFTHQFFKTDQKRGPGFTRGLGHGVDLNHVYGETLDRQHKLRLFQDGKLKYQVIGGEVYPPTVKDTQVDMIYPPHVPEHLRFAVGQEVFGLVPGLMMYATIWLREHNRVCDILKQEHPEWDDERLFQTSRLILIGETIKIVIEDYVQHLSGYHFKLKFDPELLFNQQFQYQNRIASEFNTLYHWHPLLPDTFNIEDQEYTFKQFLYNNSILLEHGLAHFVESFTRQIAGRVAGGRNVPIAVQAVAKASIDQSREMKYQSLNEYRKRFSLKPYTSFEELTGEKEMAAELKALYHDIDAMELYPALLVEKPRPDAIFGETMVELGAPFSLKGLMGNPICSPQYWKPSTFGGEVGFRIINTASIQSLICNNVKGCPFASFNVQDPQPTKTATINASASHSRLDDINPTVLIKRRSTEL
T3 sequence (Q63921 whole entry): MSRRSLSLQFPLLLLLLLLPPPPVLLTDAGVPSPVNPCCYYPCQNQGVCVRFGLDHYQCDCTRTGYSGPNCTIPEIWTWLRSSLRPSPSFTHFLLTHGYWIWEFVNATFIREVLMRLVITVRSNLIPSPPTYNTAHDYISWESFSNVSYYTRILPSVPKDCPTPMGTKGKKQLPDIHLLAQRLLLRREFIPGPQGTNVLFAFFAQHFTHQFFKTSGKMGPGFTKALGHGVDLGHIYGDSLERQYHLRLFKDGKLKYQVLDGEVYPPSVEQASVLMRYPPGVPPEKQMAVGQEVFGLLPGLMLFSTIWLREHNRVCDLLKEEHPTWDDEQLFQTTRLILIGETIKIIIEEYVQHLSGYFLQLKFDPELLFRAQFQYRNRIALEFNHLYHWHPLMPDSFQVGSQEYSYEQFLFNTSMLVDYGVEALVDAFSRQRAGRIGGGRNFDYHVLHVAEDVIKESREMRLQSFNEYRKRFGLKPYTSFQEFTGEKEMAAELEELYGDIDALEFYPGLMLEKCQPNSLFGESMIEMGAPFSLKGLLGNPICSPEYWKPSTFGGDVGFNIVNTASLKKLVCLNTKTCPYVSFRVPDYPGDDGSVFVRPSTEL
Description: Inhibition of prostaglandin G/H synthase in intact rat basophilic leukemia cells stimulated with the calcium ionophore A-23187

[6] = system: Rattus norvegicus; assay: 40% inhibition of induced edema in the rat mycobacterium foot-pad edema test; type: functional
[7] = system: Rattus norvegicus; assay: Inhibition of rat carrageenan induced foot-pad edema at a dose of 30 mg/kg on peroral administration; details: po, read-out: Inhibition
[8] = system: Rattus norvegicus; assay: Inhibition of rat carrageenan induced foot-pad edema at a dose of 10 mg/kg on peroral administration; details: po, read-out: Inhibition
[9] = system: Rattus norvegicus; assay: Inhibition of rat carrageenan induced foot-pad edema at a dose of 30 mg/kg on peroral administration; N=Inactive; type: functional, organism-based; set-up: dose 30 mg/kg
[10] = biological target: T4, Cyclooxygenase (Rattus norvegicus) (UniProt P35355+Q63921); assay: Inhibitory activity against Prostaglandin G/H synthase in intact rat basophilic leukemia cells stimulated with the calcium ionophore A-23187 at 10 uM; type: cell-based; details: RBL-1
[11] = biological target: T2, Polyunsaturated fatty acid 5-lipoxygenase; assay: Inhibitory activity against 5-lipoxygenase in intact rat basophilic leukemia cells stimulated with the calcium ionophore A-23187; Inactive(N)= <50% inhibition at 10 uM; type: cell-based; details: rbl-1
[12] = system: Rattus norvegicus; assay: 40% inhibition of induced edema in the rat mycobacterium foot-pad edema test; Inactive(N)= <30% inhibition at a dose of 10 mg/kg po; type: functional, organism-based; set-up: dose 10 mg/kg
[13] = biological target: T1, Polyunsaturated fatty acid 5-lipoxygenase (Rattus norvegicus); assay: Inhibitory activity at 1 uM against 5-lipoxygenase in intact rat basophilic leukemia cells stimulated with the calcium ionophore A-23187; type: cell-based; details: RBL-1
[14] = biological target: T4, Cyclooxygenase (Rattus norvegicus); assay: Inhibitory activity at 10 uM against Prostaglandin G/H synthase in intact rat basophilic leukemia cells stimulated with the calcium ionophore A-23187; type: cell-based; details: RBL-1
[15] = biological target: T2, Polyunsaturated fatty acid 5-lipoxygenase; assay: Inhibitory activity against 5-lipoxygenase in intact rat basophilic leukemia cells stimulated with the calcium ionophore A-23187; N=Inactive; type: cell-based; details: rbl-1
[16] = system: Rattus norvegicus; assay: 40% inhibition of induced edema in the rat mycobacterium foot-pad edema test; N=Inactive; type: functional, organism-based

Row | IC50 [4] | IC50 [5] | Compound | inhibition in vivo at 30 mg/kg [7] | inhibition in vivo at 10 mg/kg [8] | other results
1 | – | – | CN(C)CCNC1=NC(=O)/C(=C/c2cc(C(C)(C)C)c(O)c(C(C)(C)C)c2)S1 | – | – | inhibition [1]: 79%
2 | – | – | CN(C)C1=NC(=O)/C(=C/c2cc(C(C)(C)C)c(O)c(C(C)(C)C)c2)S1 | – | – | inhibition [2]: 65%
3 | 0.78 µM | 4.6 µM | CN1C(=O)NC(=O)/C1=C/c1cc(C(C)(C)C)c(O)c(C(C)(C)C)c1 | – | – | inhibition [3]: inactive
4 | 0.91 µM | 0.083 µM | CC(C)(C)c1cc(/C=C2\SC(N=C(N)N)=NC2=O)cc(C(C)(C)C)c1O | 40% | 34% | ID40 [6]: 2.2 mg/kg
5 | – | – | CN(O)C1=NC(=O)/C(=C/c2cc(C(C)(C)C)c(O)c(C(C)(C)C)c2)S1 [listing 1 of 2 here] | – | – | inhibition [9]: inactive
6 | 1.2 µM | 5.1 µM | C/C(=C1/SC(NC#N)=NC1=O)c1cc(C(C)(C)C)c(O)c(C(C)(C)C)c1 | – | – | inhibition [9]: inactive
7 | 0.48 µM | – | C/C(=C1/SC(=O)NC1=O)c1cc(C(C)(C)C)c(O)c(C(C)(C)C)c1 | – | – | inhibition [10]: 52%
8 | – | – | CNC1=NC(=O)/C(=C/c2cc(C(C)(C)C)c(O)c(C(C)(C)C)c2)S1 | – | – | IC50 [11]: Inactive
9 | 0.16 µM | 9.6 µM | O=C1NC(=O)/C(=C/c2cc(-c3ccccc3)c(O)c(-c3ccccc3)c2)S1 | 41% | 11% | ID40 [12]: inactive
10 | 1.7 µM | 2.4 µM | CC(C)(C)c1cc(/C=C2\CC(=S)NC2=O)cc(C(C)(C)C)c1O | 39% | 19% | ID40 [12]: inactive
11 | – | – | CN(C)C(=N)NC1=NC(=O)/C(=C/c2cc(C(C)(C)C)c(O)c(C(C)(C)C)c2)S1 | – | – | inhibition [13]: 100%
12 | – | – | O=C1NC(=O)/C(=C/c2cc(I)c(O)c(I)c2)S1 | – | – | IC50 [11]: Inactive; inhibition [14]: 60%
13 | – | – | CC(C)(C)c1cc(/C=C2\CCOC2=O)cc(C(C)(C)C)c1O | 28% | 17% | ID40 [6]: 3.7 mg/kg
14 | 2.3 µM | 4.5 µM | C/C(=C1/SC(=S)NC1=O)c1cc(C(C)(C)C)c(O)c(C(C)(C)C)c1 | – | – | inhibition [3]: inactive
15 | – | – | CONC1=NC(=O)/C(=C/c2cc(C(C)(C)C)c(O)c(C(C)(C)C)c2)S1 | – | – | IC50 [15]: Not Active
16 | 0.65 µM | 0.6 µM | CSC1=NC(=O)/C(=C/c2cc(C(C)(C)C)c(O)c(C(C)(C)C)c2)S1 | 47% | 36% | ID40 [16]: inactive

Row | IC50 [4] | IC50 [5] | Compound | inhibition in vivo at 30 mg/kg [7] | inhibition in vivo at 10 mg/kg [8] | other results
17 | 0.22 µM | 0.82 µM | CC(C)c1cc(/C=C2\SC(=O)NC2=O)cc(C(C)C)c1O | – | – | ID40 [16]: inactive
18 | 2.8 µM | 0.65 µM | CC(C)(C)c1cc(/C=C2\OC(=O)NC2=O)cc(C(C)(C)C)c1O | 51% | 35% | ID40 [6]: 3.7 mg/kg
19 | 0.63 µM | 0.16 µM | CC(C)(C)c1cc(/C=C2\SC(NC#N)=NC2=O)cc(C(C)(C)C)c1O | 49% | 29% | ID40 [16]: inactive
20 | 3.3 µM | 4.6 µM | CC(C)(C)c1cc(/C=C2\SC(=O)NC2=O)cc(C(C)(C)C)c1 | – | – | inhibition [9]: inactive
21 | 3.7 µM | 0.8 µM | CC(C)(C)c1cc(/C=C2\SC(NO)=NC2=O)cc(C(C)(C)C)c1O | – | – | inhibition [9]: inactive
22 | 7.3 µM | 10 µM | CN(O)C1=NC(=O)/C(=C/c2cc(C(C)(C)C)c(O)c(C(C)(C)C)c2)S1 [listing 2 of 2 here] | – | – | –
23 | – | – | CON1CC/C(=C\c2cc(C(C)(C)C)c(O)c(C(C)(C)C)c2)C1=O [E-5110] | – | – | ID40 [6]: 1.9 mg/kg
24 | 0.7 µM | 3.5 µM | CN1C(NC#N)=NC(=O)/C1=C/c1cc(C(C)(C)C)c(O)c(C(C)(C)C)c1 | – | – | inhibition [9]: inactive
25 | 2.6 µM | 1.1 µM | CC(C)(C)c1cc(/C=C2\OC(NC#N)=NC2=O)cc(C(C)(C)C)c1O | – | – | inhibition [9]: inactive
26 | – | 0.35 µM | CC(C)(C)c1cc(/C=C2\SC(=O)NC2=O)cc(C(C)(C)C)c1O | 59% | 54% | ID40 [6]: 2 mg/kg
27 | 0.17 µM | 0.79 µM | CN1C(=S)NC(=O)/C1=C/c1cc(C(C)(C)C)c(O)c(C(C)(C)C)c1 | – | – | inhibition [9]: inactive
28 | 1.7 µM | 0.33 µM | CN(O)C1=NC(=O)/C(=C/c2cc(C(C)(C)C)c(O)c(C(C)(C)C)c2)S1.Cl | – | – | ID40 [6]: 6.2 mg/kg
29 | 0.84 µM | 1.7 µM | CC(C)(C)c1cc(/C=C2\OC(=S)NC2=O)cc(C(C)(C)C)c1O | 40% | 32% | ID40 [6]: 12.4 mg/kg
30 | 1.6 µM | 1.9 µM | C/C(=C1/SC(N=C(N)N)=NC1=O)c1cc(C(C)(C)C)c(O)c(C(C)(C)C)c1 | – | – | inhibition [9]: inactive
31 | – | – | CC(C)(C)c1cc(/C=C2\SC(NCCCC(=O)O)=NC2=O)cc(C(C)(C)C)c1O | – | – | inhibition [1]: 53%
32 | – | – | O=C1NC(=O)/C(=C/c2ccc(O)cc2)S1 | – | – | IC50 [15]: Not Active

Row | Compound | IC50 [4] | IC50 [5] | inhibition in vivo at 30 mg/kg [7] | inhibition in vivo at 10 mg/kg [8] | other results
33 | CC(C)(C)c1cc(/C=C2\OC(N=C(N)N)=NC2=O)cc(C(C)(C)C)c1O.CS(=O)(=O)O | 1.2 µM | 0.34 µM | 48% | 33% | ID40 [6]: 5.7 mg/kg
34 | CN1C(NC(=N)N)=NC(=O)/C1=C/c1cc(C(C)(C)C)c(O)c(C(C)(C)C)c1 | 1.3 µM | 2.1 µM | – | – | inhibition [9]: inactive
35 | CC(C)(C)c1cc(/C=C2\SC(=S)NC2=O)cc(C(C)(C)C)c1O | 0.38 µM | 0.012 µM | 36% | 32% | –
36 | CC(C)(C)c1cc(/C=C2\SC(=N)NC2=O)cc(C(C)(C)C)c1O.CS(=O)(=O)O [DARBUFELONE MESYLATE] | 0.77 µM | 0.39 µM | 61% | 52% | ID40 [6]: 0.6 mg/kg
